According to ChEMBL document CHEMBL2413062, “Effect of single pyrrole replacement with β-alanine on DNA binding affinity and sequence specificity of hairpin pyrrole/imidazole polyamides targeting 5'-GCGC-3'” (Bioorg Med Chem, 2013):

Assays:
[1] = Selectivity ratio of Kd for mismatched hair pin DNA ODN4 5'-XGCCATGACGGCTTTTGCCGTACTGGC-3' (unknown origin) to Kd for hair pin DNA ODN1 5'-XGCCAGCGCGGCTTTTGCCGCGCTGGC-3' (unknown origin)
[2] = Selectivity ratio of Kd for mismatched hair pin DNA ODN3 5'-XGCCAGCACGGCTTTTGCCGTGCTGGC-3' (unknown origin) to Kd for hair pin DNA ODN1 5'-XGCCAGCGCGGCTTTTGCCGCGCTGGC-3' (unknown origin)
[3] = Selectivity ratio of Kd for mismatched hair pin DNA ODN2 5'-XGCCAGTGCGGCTTTTGCCGCACTGGC-3' (unknown origin) to Kd for hair pin DNA ODN1 5'-XGCCAGCGCGGCTTTTGCCGCGCTGGC-3' (unknown origin)
[4] = Binding affinity to hair pin DNA ODN4 5'-XGCCATGACGGCTTTTGCCGTACTGGC-3' (unknown origin) by surface plasmon resonance analysis
[5] = Binding affinity to hair pin DNA ODN1 5'-XGCCAGCGCGGCTTTTGCCGCGCTGGC-3' (unknown origin) by surface plasmon resonance analysis
[6] = Binding affinity to hair pin DNA ODN2 5'-XGCCAGTGCGGCTTTTGCCGCACTGGC-3' (unknown origin) by surface plasmon resonance analysis
[7] = Binding affinity to hair pin DNA ODN3 5'-XGCCAGCACGGCTTTTGCCGTGCTGGC-3' (unknown origin) by surface plasmon resonance analysis

Row | Ratio [1] | Ratio [2] | Ratio [3] | Kd [4] | Kd [5] | Kd [6] | Kd [7] | Compound
1 | 29 | 17 | 17 | 18 nM | 0.63 nM | 11 nM | 11 nM | CN(C)CCCNC(=O)CCNC(=O)c1cc(NC(=O)c2nc(NC(=O)CCNC(=O)c3nc(NC(=O)CCCNC(=O)c4cc(NC(=O)c5nc(NC(=O)CCNC(=O)c6nc(NC(=O)CCNC(=O)CCN)cn6C)cn5C)cn4C)cn3C)cn2C)cn1C
2 |  |  |  | 47 nM | 0.44 nM | 89 nM | 11 nM | CN(C)CCCNC(=O)CCNC(=O)c1cc(NC(=O)c2nc(NC(=O)c3cc(NC(=O)c4nc(NC(=O)CCCNC(=O)c5cc(NC(=O)c6nc(NC(=O)CCNC(=O)c7nc(NC(=O)CCNC(=O)CCN)cn7C)cn6C)cn5C)cn4C)cn3C)cn2C)cn1C
3 | 300 | 230 | 250 | 82000 nM | 270 nM | 68000 nM | 63000 nM | CN(C)CCCNC(=O)CCNC(=O)c1cc(NC(=O)c2nc(NC(=O)c3cc(NC(=O)c4nc(NC(=O)CCCNC(=O)c5cc(NC(=O)c6nc(NC(=O)c7cc(NC(=O)c8nc(NC(=O)CCNC(=O)CCN)cn8C)cn7C)cn6C)cn5C)cn4C)cn3C)cn2C)cn1C
4 | 270 | 120 | 16 | 190 nM | 0.7 nM | 11 nM | 83 nM | CN(C)CCCNC(=O)CCNC(=O)c1cc(NC(=O)c2nc(NC(=O)CCNC(=O)c3nc(NC(=O)CCCNC(=O)c4cc(NC(=O)c5nc(NC(=O)c6cc(NC(=O)c7nc(NC(=O)CCNC(=O)CCN)cn7C)cn6C)cn5C)cn4C)cn3C)cn2C)cn1C
